Where two headings read alike, the source gives them in different places.
What was measured:
[1] = target: T1, NanoLuc-tagged HDAC6 (Homo sapiens, UniProt Q9UBN7); test: NanoBRET displacement of HaloTag-ISG15; assay type: cell-based
T1 construct: N-terminal NanoLuc fusion in HEK293T
T1 sequence (Q9UBN7 1-1215): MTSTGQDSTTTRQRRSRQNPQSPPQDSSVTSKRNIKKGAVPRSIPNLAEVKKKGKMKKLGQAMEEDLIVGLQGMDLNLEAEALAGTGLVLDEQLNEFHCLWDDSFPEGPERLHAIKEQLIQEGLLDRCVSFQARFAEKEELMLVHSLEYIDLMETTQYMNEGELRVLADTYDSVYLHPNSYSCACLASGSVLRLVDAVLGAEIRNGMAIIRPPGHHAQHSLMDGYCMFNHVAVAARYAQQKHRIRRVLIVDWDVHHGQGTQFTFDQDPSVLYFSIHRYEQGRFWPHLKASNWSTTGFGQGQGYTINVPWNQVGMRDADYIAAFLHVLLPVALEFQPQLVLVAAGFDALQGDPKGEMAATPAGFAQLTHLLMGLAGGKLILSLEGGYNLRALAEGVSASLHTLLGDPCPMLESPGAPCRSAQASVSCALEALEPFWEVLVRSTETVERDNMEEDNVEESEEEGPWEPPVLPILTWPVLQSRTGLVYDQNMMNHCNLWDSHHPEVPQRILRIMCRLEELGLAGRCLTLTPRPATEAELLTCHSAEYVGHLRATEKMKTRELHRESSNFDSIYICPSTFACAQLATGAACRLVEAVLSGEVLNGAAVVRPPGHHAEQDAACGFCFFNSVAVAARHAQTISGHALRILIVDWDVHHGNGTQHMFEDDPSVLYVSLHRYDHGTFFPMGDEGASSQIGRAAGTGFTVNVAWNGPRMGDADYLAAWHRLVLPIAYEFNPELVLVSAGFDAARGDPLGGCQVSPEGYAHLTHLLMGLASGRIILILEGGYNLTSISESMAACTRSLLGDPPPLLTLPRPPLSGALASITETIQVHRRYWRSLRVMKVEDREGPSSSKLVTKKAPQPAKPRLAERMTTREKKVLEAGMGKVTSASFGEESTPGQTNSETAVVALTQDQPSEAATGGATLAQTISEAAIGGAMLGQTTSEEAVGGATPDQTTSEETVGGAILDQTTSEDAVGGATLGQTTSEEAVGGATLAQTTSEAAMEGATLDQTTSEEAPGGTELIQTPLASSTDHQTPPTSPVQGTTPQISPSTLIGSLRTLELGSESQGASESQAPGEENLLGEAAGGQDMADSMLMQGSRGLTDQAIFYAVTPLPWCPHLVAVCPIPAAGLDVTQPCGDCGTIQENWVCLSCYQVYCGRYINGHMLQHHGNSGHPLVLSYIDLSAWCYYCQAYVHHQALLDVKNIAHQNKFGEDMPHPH

[2] = target: USP16-UBD (USP16 8-185) (Homo sapiens, UniProt Q9Y5T5); test: ITC; assay type: binding
Sequence of USP16-UBD (USP16 8-185) (Q9Y5T5 8-185): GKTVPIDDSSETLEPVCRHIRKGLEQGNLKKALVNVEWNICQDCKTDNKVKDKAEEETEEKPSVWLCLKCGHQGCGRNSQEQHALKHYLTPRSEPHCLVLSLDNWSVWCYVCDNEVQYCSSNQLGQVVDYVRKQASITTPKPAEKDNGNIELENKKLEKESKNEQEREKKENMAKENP

[3] = target: T2, USP3 (Homo sapiens, UniProt Q9Y6I4); test: biochemical; design: SPR, steady-state binding to immobilised biotinylated UBD proteins
T2 sequence (Q9Y6I4 1-520): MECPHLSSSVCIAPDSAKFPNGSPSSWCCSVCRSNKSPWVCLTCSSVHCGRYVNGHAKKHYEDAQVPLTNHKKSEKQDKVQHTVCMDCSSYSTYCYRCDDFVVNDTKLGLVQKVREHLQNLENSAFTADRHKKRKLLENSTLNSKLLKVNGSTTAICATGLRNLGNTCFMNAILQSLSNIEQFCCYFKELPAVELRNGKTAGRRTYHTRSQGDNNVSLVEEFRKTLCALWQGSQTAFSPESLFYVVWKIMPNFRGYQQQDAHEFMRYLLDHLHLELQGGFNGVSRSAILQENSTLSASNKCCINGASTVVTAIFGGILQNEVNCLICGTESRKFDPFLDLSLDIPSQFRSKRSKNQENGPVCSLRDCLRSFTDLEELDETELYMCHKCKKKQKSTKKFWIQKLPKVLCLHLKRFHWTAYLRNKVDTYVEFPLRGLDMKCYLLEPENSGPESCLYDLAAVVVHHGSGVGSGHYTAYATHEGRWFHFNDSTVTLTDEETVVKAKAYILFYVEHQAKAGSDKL

[4] = target: T3, HDAC6-UBD (HDAC6 1109-1215) (Homo sapiens, UniProt Q9UBN7); test: SPR, steady state; assay type: binding
T3 sequence (Q9UBN7 1109-1215): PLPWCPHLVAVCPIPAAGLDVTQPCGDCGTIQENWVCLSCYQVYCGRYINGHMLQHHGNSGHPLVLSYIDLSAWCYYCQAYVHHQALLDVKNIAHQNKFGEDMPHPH

[5] = target: T4, USP16-UBD (USP16 25-185) (Homo sapiens, UniProt Q9Y5T5); test: SPR, steady state; assay type: binding
T4 sequence (Q9Y5T5 25-185): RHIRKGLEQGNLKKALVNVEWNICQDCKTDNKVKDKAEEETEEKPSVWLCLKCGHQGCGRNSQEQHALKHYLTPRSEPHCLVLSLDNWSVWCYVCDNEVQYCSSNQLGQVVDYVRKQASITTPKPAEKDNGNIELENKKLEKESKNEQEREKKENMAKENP

[6] = target: T5, USP16-FL (USP16 1-823) (Homo sapiens, UniProt Q9Y5T5); test: ubiquitin-rhodamine110 DUB assay; assay type: biochemical; conditions: […] ubiquitin-rhodamine-[…] enzyme, pH […], up to […] compound
T5 construct: full length 1-823, pFBOH-LIC, Sf9 baculovirus, Ni-NTA and MonoQ
T5 sequence (Q9Y5T5 whole entry): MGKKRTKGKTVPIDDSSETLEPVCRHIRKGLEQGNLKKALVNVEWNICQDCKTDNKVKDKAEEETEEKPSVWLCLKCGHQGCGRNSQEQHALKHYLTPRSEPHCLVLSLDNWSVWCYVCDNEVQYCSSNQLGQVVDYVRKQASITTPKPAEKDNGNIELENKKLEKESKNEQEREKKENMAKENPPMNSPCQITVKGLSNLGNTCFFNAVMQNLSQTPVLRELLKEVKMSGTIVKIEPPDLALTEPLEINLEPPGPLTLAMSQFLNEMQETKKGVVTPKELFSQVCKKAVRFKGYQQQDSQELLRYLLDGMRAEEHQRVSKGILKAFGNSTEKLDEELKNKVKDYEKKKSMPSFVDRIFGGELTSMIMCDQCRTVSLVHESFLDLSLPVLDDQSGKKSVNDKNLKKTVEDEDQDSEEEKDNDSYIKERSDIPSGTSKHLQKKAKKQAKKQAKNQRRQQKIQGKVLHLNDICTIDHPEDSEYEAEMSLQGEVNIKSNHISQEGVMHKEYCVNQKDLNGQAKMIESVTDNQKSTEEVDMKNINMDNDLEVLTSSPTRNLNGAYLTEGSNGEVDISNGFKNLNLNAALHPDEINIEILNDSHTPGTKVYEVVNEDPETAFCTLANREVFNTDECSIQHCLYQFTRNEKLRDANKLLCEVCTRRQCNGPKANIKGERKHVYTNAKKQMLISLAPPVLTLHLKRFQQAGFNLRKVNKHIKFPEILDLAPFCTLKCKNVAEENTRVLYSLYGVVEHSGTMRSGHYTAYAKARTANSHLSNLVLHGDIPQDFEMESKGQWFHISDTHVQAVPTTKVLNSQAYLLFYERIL

[7] = target: T6, NanoLuc-tagged USP16 (Homo sapiens, UniProt Q9Y5T5); test: NanoBRET displacement of HaloTag-ISG15; assay type: cell-based; conditions: HEK293T cells, […]
T6 construct: N-terminal NanoLuc fusion in HEK293T
T6 sequence (Q9Y5T5 whole entry, the tested form may be a part): as the sequence (Q9Y5T5 whole entry) above

[8] = target: T1, NanoLuc-tagged HDAC6; test: NanoBRET displacement of HaloTag-ISG15; assay type: cell-based; conditions: HEK293T cells, […]
[9] = target: T4, USP16-UBD (USP16 25-185); test: biochemical; design: SPR, steady-state binding to immobilised biotinylated UBD proteins; conditions: read-out: Negative Control KD (nM) SGC-UBD1031N

| IC50 [1] [µM] | Kd [2] [µM] | Kd ([3]; read-out: Probe KD (nM) SGC-UBD1031) [nM] | Kd [4] [µM] | Kd [5] [µM] | Kd ([3]; read-out: Negative Control KD (nM) SGC-UBD1031N) [nM] | Kd [9] [nM] | SMILES | ubiquitin-rhodamine110 DUB assay [6] | NanoBRET displacement of HaloTag-ISG15 [7] | NanoBRET displacement of HaloTag-ISG15 [8] |
| --- | --- | --- | --- | --- | --- | --- | --- | --- | --- | --- |
| 1.5 ± 0.2 | 0.05 | > 10000 | 0.016 | 0.048 | – | – | C[C@H](NC(=O)Cn1c(CCC(=O)O)nc2c(Cl)cccc2c1=O)c1c(F)cccc1F [compound 15, (S)-3-(8-chloro-3-(2-((1-(2,6-difluorophenyl)ethyl)amino)-2-oxoethyl)-4-oxo-3,4-dihydroquinazolin-2-yl)propanoic acid] | – | – | – |
| – | – | – | > 5 | – | 8700 ± 1800 | 1770 ± 300 | C[C@@H](NC(=O)Cn1c(CCC(=O)O)nc2c(Cl)cccc2c1=O)c1c(F)cccc1F [compound 16, (R)-3-(8-chloro-3-(2-((1-(2,6-difluorophenyl)ethyl)amino)-2-oxoethyl)-4-oxo-3,4-dihydroquinazolin-2-yl)propanoic acid] | the negative control shows no inhibition of DUB activity | SGC-UBD1031N did not inhibit the interaction of HDAC6 or USP16 and ISG15 | SGC-UBD1031N did not inhibit the interaction of HDAC6 or USP16 and ISG15 |

— publication doi:10.1101/2025.10.23.684218v2, “Development of a dual chemical probe for the USP16 and HDAC6 zinc-finger ubiquitin-binding domain” (biorxiv, 2025)
